Laboratory results taken from US7704975B2, “Modafinil compound and cyclodextrin mixtures” (Cephalon, Inc., priority 2000, dated 2010).
Values after ≈ are worked out from the molar mass of the structure shown. Where two headings read alike, the source gives them in different places.

Columns and labels:
[1] = system: mice; conditions: single administration; cited from earlier work
[2] = system: monkeys; conditions: single administration; cited from earlier work
[3] = Aqueous solubility of modafinil, alone and in HPβCD solutions; type: physicochemical; conditions: thermodynamic from solid
Method: The following HPLC method may be used to measure the modafinil compound content in the compositions. Filter a solution saturated with a modafinil compound through a 1.2 μm syringe filter. Dilute 10 μL of the clear solution to 1 mL with 990 μL of dimethylsulfoxide (Fischer Certified ACS grade). Take 10 μL of the diluted solution for the HPLC analysis, with the following representative column conditions: • Flow rate: 1.2 mL/min. • Column: ODS, 4.6×20 mm, Column Temp: 30° C. • Mobil phase: 80%(65% Acetonitrile/35%1M phosphate buffer) 20% water • Analysis time: 5 minutes • Wavelength: 222 nanometers
Concentration can be calculated by comparison to area from a modafinil compound standard used at 0.4 mg/mL with appropriate dilution.

## NC(=O)C[S+]([O-])C(c1ccccc1)c1ccccc1 (stereo not drawn) [modafinil, 2-(benzhydryl-sulfinyl)acetamide]
[1]
  locomotor activity: increased locomotor activity
[2]
  nocturnal activity: increased nocturnal activity
[3]; aqueous with cosolvent or surfactant or cyclodextrin, 2% HPβCD solution, from 1:1 complex, read-out: amount solubilized
  solubility: ~4.4 mg/mL (≈ 16.1 mM)
[3]; aqueous with cosolvent or surfactant or cyclodextrin, 20% HPβCD solution, from 1:1 complex, read-out: amount solubilized
  solubility: ~39.5 mg/mL (≈ 144 mM)
[3]; aqueous with cosolvent or surfactant or cyclodextrin, 40% HPβCD solution, from 1:1 complex, read-out: amount solubilized
  solubility: ~78.4 mg/mL (≈ 287 mM)
[3]; water without cyclodextrin, water, read-out: aqueous solubility
  solubility: 0.44 mg/mL (≈ 1.61 mM)
